# From patent US20160095802A1, “COMBINATION OF PETROSELINIC ACID AND ZINC FOR ORAL ADMINISTRATION FOR HAIR AGING CONTROL” (NUTRICOS TECHNOLOGIES, priority 2013, published 2016)
# Test system: Lipoxin A4 production in human mononuclear cells
# Assay: Lipoxin A4 production in stimulated human mononuclear blood cells in vitro (LC-MS of supernatants)
# Assay type: cell-based
# Conditions: coriander oil 0.25 mg/ml, zinc gluconate 0.005 mg/ml; 30 min pre-incubation, then 2 hours stimulation with phorbol myristate 0.05 μM + calcium ionophore 1 μM + DHA/EPA 1 μg/mL each; triplicates
# Method: Mononuclear blood cells are cultured under 5% CO2 and at 37° C. in a serum-free medium for macrophages (SFM Macrophage; Invitrogen 12065074) for 24 hours. After this step, the medium is replaced with the same fresh test medium also containing the active agents at the various doses for 30 minutes in the presence of the various products to be evaluated (coriander oil 0.25 mg/ml, zinc gluconate ([…]. The inflammatory response was then triggered in the presence of phorbol myristate (0.05 μM) and calcium ionophore (1 μM) and a lipid substrate mixture composed of docosahexaenoic acid (DHA—1 μg/mL) and eicosapentaenoic acid (EPA—1 μg/mL).
# The supernatants were then collected after 2 hours of stimulation and frozen at −80° C. before preparation for analysis by mass spectrometry.
# Experimental triplicates (three wells) were prepared per experimental condition. Into each culture plate was placed a control corresponding to cells stimulated with the PMA/A23187 mixture and/or with addition of the equimolar mixture of fatty acids.
# The thawed supernatants were concentrated by solid-phase extraction (SPE) and taken up in methanol before spectrometric analysis. The analytical method used consists in separating the various analytes by high-pressure liquid chromatography as a function of their retention time and in quantifying them by mass spectrometry. […]
substance,measurement,value
Zinc gluconate,Level of lipoxin A4 production (% modulation relative to the control),−5%
